Experimental data from patent US11878063B2, “Engineered ligands and uses thereof” (Children's Medical Center Corporation, priority 2019, dated 2024).

Columns and labels:
[1] = system: Mice (CD1 female); assay: Calcemic response: blood ionized calcium in mice after subcutaneous injection; format: in vivo, mouse; conditions: 35 nmol/kg subcutaneous
Experimental: Animal experiments and measurement of in vivo response. Mice (CD1 female, age 11 weeks) were treated in accordance with the ethical guidelines adopted by Massachusetts General Hospital. […] Peptides and conjugates were administered at doses that allowed for differentiation between compounds with differing levels of in vivo activity^27. Statistical analyses were performed assuming Gaussian distribution of data. Mice (n=4 per compound) were injected subcutaneously with vehicle (10 mM citric acid/150 mM NaCl/0.05% Tween-80, pH 5.0) or vehicle containing PTH or conjugate at a dose of 35 nmol/kg body weight. […] Blood was withdrawn just before injection (t=0) or at times thereafter. Tail vein blood was collected and immediately analyzed. Blood Ca^2+ concentration was measured with a Siemens RapidLab 348 Ca2+/pH analyzer.

[2] = system: PTHR1YFPΔECD; assay: cAMP induction in HEK293 cells stably expressing PTHR1YFPΔECD (YFP replaces extracellular domain); format: cell-based, human
Experimental: Measurement of cAMP response. These assays were performed as previously described^27. Briefly, HEK-293-derived cell lines that stably express the Glosensor cAMP reporter (Promega Corp.)^30 and PTHR1, a PTHR1 variant, or PTHR2 were seeded into white sided 96 well plates (50,000 cells/well) and grown to confluency. Confluent monolayers of cells were pre-incubated with CO2 independent medium containing D-luciferin (0.5 mM) at 37° C. until a stable baseline level of luminescence was established (20 min). Varying concentrations of ligands were then added, and the time course of luminescence response was recorded using BioTek plate reader.
(§1) Data calculations. Data were processed using Microsoft Excel and GraphPad Prism 6. Data from cAMP dose-response assays were analyzed using a sigmoidal dose-response model with variable slope. Data sets were statistically compared by using Student's t test (two-tailed) assuming unequal variances for the two sets.
The portion of PTHR1 encoded by exon 2 is not resolved in structural studies (FIG. 12—Panel d)^13, 14, 17, is not important for ligand binding^18, and in past work has been targeted as a site for receptor modification^18, 19. A construct was generated that encodes a PTHR1 variant in which a 14-residue fragment from exon 2 was replaced with a 14-mer epitope tag from the intracellular protein UBC6e (PTHR16E, FIG. 12—Panel d)^20. A receptor construct in which a pH-sensitive green fluorescent protein variant (GFP) was inserted into the portion of the receptor encoded by exon 2 (PTHR1GFP in FIGS. 17A to 17C)^19. Another version of PTHR1 in which yellow fluorescent protein (YFP) replaces the entire extracellular domain (PTHR1YFPΔECD, FIG. 12—Panel e)^21, was also used.

[3] = molecular target: T1, PTHR2 (Homo sapiens, UniProt P49190); assay: cAMP induction in HEK293 cells stably expressing human PTHR2; format: cell-based; conditions: maximal cAMP response, normalized
T1 construct: expressed in transfected cells
Experimental: (§2) Measurement of cAMP response. These assays were performed as previously described^27. […] Confluent monolayers of cells were pre-incubated with CO2 independent medium containing D-luciferin (0.5 mM) at 37° C. until a stable baseline level of luminescence was established (20 min). Varying concentrations of ligands were then added, and the time course of luminescence response was recorded using BioTek plate reader.
as §1

[4] = molecular target: T2, human PTHR1 (Homo sapiens, UniProt Q03431); assay: cAMP induction (cAMP-responsive luciferase) in HEK293 cells stably expressing human PTHR1; format: cell-based; conditions: maximal cAMP response, normalized
T2 construct: expressed in transfected cells
T2 sequence (Q03431 27-593): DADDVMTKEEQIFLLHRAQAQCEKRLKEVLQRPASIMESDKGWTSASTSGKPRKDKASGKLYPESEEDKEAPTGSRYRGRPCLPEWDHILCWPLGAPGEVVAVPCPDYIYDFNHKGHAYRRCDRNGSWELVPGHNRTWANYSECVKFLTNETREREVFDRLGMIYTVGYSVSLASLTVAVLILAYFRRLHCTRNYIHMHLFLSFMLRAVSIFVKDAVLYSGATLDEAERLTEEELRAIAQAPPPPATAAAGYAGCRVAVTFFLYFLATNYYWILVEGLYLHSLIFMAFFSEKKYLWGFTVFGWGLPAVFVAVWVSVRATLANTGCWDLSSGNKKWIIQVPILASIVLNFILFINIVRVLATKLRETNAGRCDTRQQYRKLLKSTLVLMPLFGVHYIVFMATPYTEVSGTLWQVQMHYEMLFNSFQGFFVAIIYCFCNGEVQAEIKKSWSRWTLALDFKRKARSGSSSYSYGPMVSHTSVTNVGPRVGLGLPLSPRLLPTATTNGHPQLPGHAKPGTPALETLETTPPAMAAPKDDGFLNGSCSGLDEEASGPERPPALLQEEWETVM
Experimental: as §2, §1

[5] = molecular target: T2, human PTHR1; assay: β-arrestin2-YFP recruitment in HEK293 cells transiently transfected with human PTHR1 (microscopy); format: cell-based; conditions: 30 nM PTH(1-34)-TMR; 100 nM conjugate or VHH; 30 min room temperature
Experimental: FIGS. 30A-30F: Assessment of β-arrestin recruitment. A HEK293-derived cell line stably expressing a β-arrestin2-YFP fusion^2 was transiently transfected with human PTHR1. […] (red) and the nuclei of all cells were counterstained with DAPI. […] Panels show the same field of view with signal for β-arrestin2-YFP. […] (FIG. 30E) The ligands or VHHs (and concentrations) applied to these cells are VHHPTHR (100 nM). (FIG. 30F) The ligands or VHHs (and concentrations) applied to these cells are Vehicle. Transfected cells were incubated with indicated ligands or VHHs at room temperature for 30 minutes. This solution was aspirated, and the cells were washed twice, fixed with paraformaldehyde, and imaged as described in methods. For each panel the bottom image corresponds to an expanded version of the inset marked by the rectangle in the top image.

[6] = molecular target: T3, rat PTHR1 (Rattus norvegicus, UniProt P25961); assay: cAMP induction in HEK293 cells stably expressing rat PTHR1; format: cell-based; conditions: maximal cAMP response, normalized
T3 construct: expressed in transfected cells
T3 sequence (P25961 27-591): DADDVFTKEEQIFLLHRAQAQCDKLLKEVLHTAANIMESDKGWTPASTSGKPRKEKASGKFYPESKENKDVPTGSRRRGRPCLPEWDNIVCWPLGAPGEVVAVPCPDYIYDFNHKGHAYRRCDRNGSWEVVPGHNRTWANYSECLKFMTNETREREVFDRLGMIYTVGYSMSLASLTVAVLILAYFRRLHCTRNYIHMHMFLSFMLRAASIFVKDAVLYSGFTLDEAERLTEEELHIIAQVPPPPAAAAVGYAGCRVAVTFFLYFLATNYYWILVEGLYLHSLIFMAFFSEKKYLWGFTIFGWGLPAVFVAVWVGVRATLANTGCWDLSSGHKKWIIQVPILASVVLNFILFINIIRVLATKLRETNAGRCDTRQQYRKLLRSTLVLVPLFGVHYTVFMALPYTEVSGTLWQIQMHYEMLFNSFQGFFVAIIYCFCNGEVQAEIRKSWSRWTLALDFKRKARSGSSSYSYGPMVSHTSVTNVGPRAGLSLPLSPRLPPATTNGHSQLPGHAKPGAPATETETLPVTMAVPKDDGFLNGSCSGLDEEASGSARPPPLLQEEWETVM
Experimental: as §2, §1

T1 sequence (P49190 25-550): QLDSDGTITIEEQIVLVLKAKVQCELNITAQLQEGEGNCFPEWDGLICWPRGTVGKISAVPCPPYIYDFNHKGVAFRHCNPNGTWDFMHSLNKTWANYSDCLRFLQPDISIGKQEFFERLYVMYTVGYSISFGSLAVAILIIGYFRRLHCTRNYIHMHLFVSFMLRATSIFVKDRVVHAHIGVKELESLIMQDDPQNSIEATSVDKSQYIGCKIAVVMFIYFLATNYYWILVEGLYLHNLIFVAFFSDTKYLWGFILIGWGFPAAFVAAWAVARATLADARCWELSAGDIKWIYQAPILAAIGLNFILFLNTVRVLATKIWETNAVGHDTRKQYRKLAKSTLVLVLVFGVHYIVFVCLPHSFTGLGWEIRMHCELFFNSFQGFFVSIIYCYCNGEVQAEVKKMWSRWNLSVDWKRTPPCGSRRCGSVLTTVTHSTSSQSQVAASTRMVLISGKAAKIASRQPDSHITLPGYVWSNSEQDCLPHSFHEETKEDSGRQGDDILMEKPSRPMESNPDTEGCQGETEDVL

CC[C@H](C)[C@H](NC(=O)[C@H](CCC(=O)O)NC(=O)[C@H](CO)NC(=O)[C@@H](NC(=O)[C@@H](N)CO)C(C)C)C(=O)N[C@@H](CCC(N)=O)C(=O)N[C@@H](CC(C)C)C(=O)N[C@@H](CCSC)C(=O)N[C@@H](Cc1cnc[nH]1)C(=O)N[C@@H](CC(N)=O)C(=O)N[C@@H](CC(C)C)C(=O)NCC(=O)N[C@@H](CCCCN)C(=O)N[C@@H](Cc1cnc[nH]1)C(=O)N[C@@H](CC(C)C)C(=O)N[C@@H](CC(N)=O)C(=O)N[C@@H](CO)C(=O)N[C@@H](CCSC)C(=O)N[C@@H](CCC(=O)O)C(=O)N[C@@H](CCCN=C(N)N)C(=O)N[C@H](C(=O)N[C@@H](CCC(=O)O)C(=O)N[C@@H](Cc1c[nH]c2ccccc12)C(=O)N[C@@H](CC(C)C)C(=O)N[C@@H](CCCN=C(N)N)C(=O)N[C@@H](CCCCN)C(=O)N[C@@H](CCCCN)C(=O)N[C@@H](CC(C)C)C(=O)N[C@@H](CCC(N)=O)C(=O)N[C@@H](CC(=O)O)C(=O)N[C@H](C(=O)N[C@@H](Cc1cnc[nH]1)C(=O)N[C@@H](CC(N)=O)C(=O)N[C@@H](Cc1ccccc1)C(=O)O)C(C)C)C(C)C [PTH(1-34)]
time of peak blood ionized calcium after injection [1]: 1 to 2 h
blood ionized calcium response ([1]; n=4): strong increase
Max (normalized ± SD), hPTHR1YFPΔECD ([2]; maximal cAMP response, normalized): 1.00 ± 0.00
EC50 ([2]; mean ± SD, Inactive = response <5% of maximal, read-out: EC50, cAMP induction, hPTHR1YFPΔECD): 689 ± 301 nM
Max (normalized ± SD), hPTHR2 [3]: 1 ± 0
Max (normalized ± SD), hPTHR1 [4]: 1.00 ± 0.00
relocalization of YFP-tagged β-arrestin to puncta [5]: effectively stimulated
Max (normalized ± SD), rPTHR1 [6]: 1.00 ± 0.00
